Assay results taken from patent US20260284086A1, “PHARMACEUTICAL COMPOSITION FOR TREATMENT OF INFLAMMATORY BOWEL DISEASE” (EA PHARMA CO., LTD., priority 2023, published 2026).
Converted amounts (≈) assume the structure as drawn. Like-named read-outs stand apart in the source and are kept apart here.

What was measured:
[1] = Phase 1 single-dose administration study: plasma concentration of Compound (2) by LC/MS/MS after oral Compound (1); type: in vivo, human; conditions: Compound (1) 200 mg C-SEDDS single oral dose
[2] = Repeated Administration Study 1: L-SEDDS 400 mg once daily for 10 days, plasma Compound (2); type: in vivo, human
Experimental: (§1) This clinical trial was a single-center, randomized, double-blind, placebo-controlled, single and multiple ascending dose study with the primary objective of evaluating the safety and tolerability of Compound (1) when orally administered to healthy adult males.
(§2) Screening tests were conducted within 28 to 3 days before administration of the investigational drug to confirm the eligibility of the subjects, and the subjects were hospitalized 2 days before administration. After hospitalization, tests were conducted from 2 days before administration to the day of administration to confirm that there were no problems with eligibility, and then Compound (1) or placebo was randomly assigned. The subjects in each cohort consisted of 8 people, of which 6 were assigned to Compound (1) and 2 were assigned to placebo, and they were administered the drug.
(§3) Day 8, when repeated administration was started, corresponds to administration day 1 (Day 1), and day 17 corresponds to administration day 10 (Day 10). […]
(§4) The plasma concentration of Compound (2) was measured using a validated measurement method. Specifically, plasma was separated from collected blood and processed, and then the plasma concentration was measured by an LC/MS/MS apparatus.
(§5) For twice-daily administration of C-SEDDS, blood was further collected at 13, 14, 14.5, and 16 hours later to quantify Compound (2).

[3] = Repeated Administration Study 2: C-SEDDS 200 mg twice daily for 10 days, plasma Compound (2); type: in vivo, human
Experimental: as §1, §2, §3, §4, §5

[4] = PK Simulation Analysis 1 by Superposition Method (Phoenix WinNonlin NPS); parameters: species or system human; conditions: Compound (1) 50 mg; 2.5 times the 20 mg prediction
Text: The plasma concentration profile of Compound (2) on day 10 of repeated administration was predicted using the superposition method implemented in the Nonparametric Superposition (NPS) tool of the analysis software Phoenix WinNonlin, applying the single-dose results (Certara L.P.) (FIG. 4).

[5] = PK Simulation Analysis 2 by Superposition Method (200 mg twice daily); parameters: species or system human; conditions: Day 10 of repeated administration
Experimental: The plasma concentration of Compound (2) on day 10 of repeated administration at 200 mg twice daily (every 12 hours) was predicted using the superposition method implemented in the Nonparametric Superposition (NPS) tool of the analysis software Phoenix WinNonlin, applying the results of once-daily administration at 200 mg (Certara L.P.) (FIG. 6).

[6] = molecular target: T1, MAdCAM-1 binding of lymphocytes (CD3-positive CD4-positive cells) (Homo sapiens, UniProt P13612+P26010); assay: Ex vivo integrin inhibitory activity: MAdCAM-1 binding inhibition rate of lymphocytes in plasma (flow cytometry); type: cell-based; conditions: for IC90: CD4 positive
T1 construct: endogenous in cells; host or cells: CD3-positive CD4-positive lymphocytes in heparinized whole blood of dosed healthy adult males
T1 sequence (P13612 34-1032): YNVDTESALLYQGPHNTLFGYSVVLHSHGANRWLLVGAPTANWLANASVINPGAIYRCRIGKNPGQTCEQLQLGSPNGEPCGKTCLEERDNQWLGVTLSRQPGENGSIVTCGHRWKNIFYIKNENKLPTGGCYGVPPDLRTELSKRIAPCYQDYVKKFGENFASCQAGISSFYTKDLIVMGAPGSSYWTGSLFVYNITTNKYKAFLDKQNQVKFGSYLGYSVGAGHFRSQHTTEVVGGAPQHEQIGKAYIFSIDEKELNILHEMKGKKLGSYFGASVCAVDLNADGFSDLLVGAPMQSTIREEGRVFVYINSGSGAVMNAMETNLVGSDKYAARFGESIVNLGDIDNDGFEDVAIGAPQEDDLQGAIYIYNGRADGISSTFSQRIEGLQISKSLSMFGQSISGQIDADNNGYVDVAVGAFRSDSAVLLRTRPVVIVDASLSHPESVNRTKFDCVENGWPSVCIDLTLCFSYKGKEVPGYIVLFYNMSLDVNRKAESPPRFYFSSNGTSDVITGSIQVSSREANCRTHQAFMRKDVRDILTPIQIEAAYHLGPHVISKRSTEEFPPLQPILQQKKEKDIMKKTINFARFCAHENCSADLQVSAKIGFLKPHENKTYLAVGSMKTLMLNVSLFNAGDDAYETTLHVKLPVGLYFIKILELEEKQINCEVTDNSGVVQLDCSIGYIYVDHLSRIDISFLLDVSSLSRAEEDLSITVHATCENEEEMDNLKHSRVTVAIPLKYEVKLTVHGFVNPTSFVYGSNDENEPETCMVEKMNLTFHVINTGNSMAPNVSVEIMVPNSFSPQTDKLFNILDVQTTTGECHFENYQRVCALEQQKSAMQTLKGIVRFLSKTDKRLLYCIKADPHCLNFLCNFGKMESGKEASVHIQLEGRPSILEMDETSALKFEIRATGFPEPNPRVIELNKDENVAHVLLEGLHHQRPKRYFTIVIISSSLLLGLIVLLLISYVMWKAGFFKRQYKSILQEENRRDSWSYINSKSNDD
T1 sequence (P26010 20-798): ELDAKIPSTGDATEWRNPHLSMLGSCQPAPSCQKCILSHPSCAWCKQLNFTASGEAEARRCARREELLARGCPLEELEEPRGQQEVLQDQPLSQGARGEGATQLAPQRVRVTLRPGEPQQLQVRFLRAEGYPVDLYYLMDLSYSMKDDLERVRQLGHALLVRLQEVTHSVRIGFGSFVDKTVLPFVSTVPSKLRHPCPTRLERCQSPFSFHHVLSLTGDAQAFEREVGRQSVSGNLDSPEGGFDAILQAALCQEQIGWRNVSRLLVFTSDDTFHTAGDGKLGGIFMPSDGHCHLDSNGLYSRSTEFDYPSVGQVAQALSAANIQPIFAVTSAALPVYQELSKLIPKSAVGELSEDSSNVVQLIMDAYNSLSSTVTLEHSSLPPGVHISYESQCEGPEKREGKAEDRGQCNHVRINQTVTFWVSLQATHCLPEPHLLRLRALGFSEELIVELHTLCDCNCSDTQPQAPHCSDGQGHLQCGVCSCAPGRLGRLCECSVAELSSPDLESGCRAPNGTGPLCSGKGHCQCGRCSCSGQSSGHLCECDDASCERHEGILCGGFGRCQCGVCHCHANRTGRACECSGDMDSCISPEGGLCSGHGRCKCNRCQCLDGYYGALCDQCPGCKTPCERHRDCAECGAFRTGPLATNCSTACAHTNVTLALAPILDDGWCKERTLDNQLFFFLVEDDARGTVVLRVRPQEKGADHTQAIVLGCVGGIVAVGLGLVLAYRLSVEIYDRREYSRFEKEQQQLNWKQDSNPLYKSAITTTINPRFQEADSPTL
Experimental: [MAdCAM-1 Binding Inhibition Rate (PD) of Lymphocytes in Plasma and IC90, IC50]
The MAdCAM-1 binding rate of lymphocytes in plasma was measured using a validated measurement method using the obtained blood samples, and the MAdCAM-1 binding inhibition rate of lymphocytes in plasma was calculated using Excel. Specifically, 5 μL of an 80 mM MnCl2 solution was added to 90 μL of heparinized blood and incubated at room temperature for 10 minutes. A volume of 5 μL of 200 μg/mL recombinant human MAdCAM-1/Fc (R&D Systems) was added to make a total volume of 100 μL, and the mixture was incubated at room temperature for 30 minutes. Subsequently, 1900 μL of BD Phosflow Lyse/Fix Buffer 5× (BD Biosciences) was added, and hemolysis and fixation were performed at 37° C. for 10 minutes. After centrifugation for 5 minutes, the supernatant was removed, and 2000 μL of RPMI-1640 medium supplemented with 10% inactivated fetal bovine serum (hereinafter referred to as medium) was added. After centrifugation for 5 minutes, the supernatant was removed and washed. After washing again with the medium, 50 μL of Brilliant Stain Buffer (BD Biosciences), 1.25 μL of MAdCAM-1 FITC (Hycult Biotech), 5 μL of CD4 PE (BD Biosciences), 2.5 μL of CD45RO APC (UCHL1) (BioLegend), 5 μL of CD3 BV421 (SK7) (BioLegend), and 2.5 μL of CD45 BV510 (HI30) (BioLegend) were added, and the mixture was incubated for 30 minutes. After washing with Stain Buffer (BSA) (BD Biosciences), the percentage of MAdCAM-1-positive cells among CD3-positive CD4-positive cells was measured using flow cytometry.
The percentage of MAdCAM-1-positive cells among CD3-positive CD4-positive cells was calculated by subtracting each measured value from the measured value when MAdCAM-1/Fc was not added as a control. The percentage of MAdCAM-1-positive cells among CD3-positive CD4-positive cells before administration of Compound (1) or placebo was set as 0% inhibition, and the MAdCAM-1 binding inhibition rate at each blood collection time point was obtained. Furthermore, the concentration IC50 that causes 50% binding inhibition and the concentration IC90 that causes 90% binding inhibition were calculated.
The MAdCAM-1 binding inhibition rate (PD) of lymphocytes in plasma was evaluated using collected blood, and the correlation with the plasma concentration (PK) of Compound (2) was plotted (FIG. 5).

Cc1cc(=O)n(-c2ccc(C[C@H](NC(=O)c3cc(F)c(NS(=O)(=O)c4ccc(NC(=O)C(C)(C)C)cc4)cc3F)C(=O)O)cn2)c(=O)n1C [Compound (2)]
plasma concentration of Compound (2) ([1]; 0.5 h post-dose): Below quantitation limit
plasma concentration of Compound (2) ([1]; 1 h post-dose): Below quantitation limit
increase of plasma concentration (trough value) after 24 hours, Day 10 of repeated vs single-dose administration ([2]; Compound (1) 400 mg L-SEDDS once daily): more than threefold
trough concentration relative to IC90 ([2]; once-daily administration of L-SEDDS (Compound (1) 400 mg)): maintained above IC90 (6.9 mg/mL) from the second day of administration
increase of plasma concentration (trough value) 12 hours after the second dose on Day 10 of repeated vs single-dose administration ([3]; Compound (1) 200 mg C-SEDDS twice daily): about eightfold
trough concentration relative to IC90 ([3]; twice-daily administration of C-SEDDS (Compound (1) 200 mg)): maintained above IC90 (6.9 mg/mL) from the third day of administration
estimated Cmax on the 10th day of repeated administration [4]: 3.63 ng/mL
predicted trough value (200 mg twice daily) relative to measured trough value (400 mg once daily) [5]: about twice
IC90 ([6]; ex vivo, blood of healthy adult males given Compound (1), read-out: IC90 (plasma concentration that causes 90% MAdCAM-1 binding inhibition)): 6.9 ng/mL (≈ 9.88 nM)
IC90 ([6]; read-out: IC90): 6.9 ng/mL (≈ 9.88 nM)
IC50 ([6]; ex vivo, blood of healthy adult males given Compound (1), read-out: IC50 (plasma concentration that causes 50% MAdCAM-1 binding inhibition) (converted)): 2.72 nM
correlation of plasma concentration (PK) with MAdCAM-1 binding inhibition rate (PD) ([6]; ex vivo, collected blood, FIG. 5): correlated
